The source made the active and inactive calls.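 The calls were made as follows: active = cell-killing curve crosses a set limit at a concentration no more than twice the top valid dose; inconclusive = flat curve with a 30 to 70% loss, or a poor fit; inactive = signal rising instead of falling, and the rest.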
Test: cytotoxicity in EWS/Fli1-dependent TC71 cells – cell-based, luminescence, cherry-picked samples, retest, confirmation (AID 720570)
Settings: TC71 Ewing sarcoma viability, CellTiter-Glo ATP, 72 h

SMILES | activity change, negative = cytotoxicity (at 26 µM (top of the series)) | activity change, negative = cytotoxicity (at 23.5 µM (top of the series))
Nc1ccc2c(c1)OC1(CCCC1)O2 | 25.1% (inactive) | 
Nc1ccc(-c2cc3ccccc3oc2=O)cc1 | -3.32% (inactive) | 
COC(=O)C[C@@H]1CC[C@@H]2[C@H](COc3ccc(NC(=O)c4ccccc4)cc3C(=O)N2C)O1 | 7.67% (inactive) | 
Cc1c(-c2nc(-c3ccc(C(C)(C)C)cc3)no2)n(C)oc1=O | -0.627% (inactive) | 
COC(=O)Cc1ccc(NC(=O)c2ccccc2Cl)cc1 | -1.96% (inactive) | 
CC(NC(=O)c1ccco1)c1nc(-c2ccc(C(C)(C)C)cc2)no1 (configuration not stated) | -6.69% (inactive) | 
COc1ccc(C(=O)Nc2cccc(C(=O)N/N=C/c3ccc(OC)cc3OC)c2)cc1 | 11.2% (inactive) | 
Cc1cc(Br)ccc1N=C1C(=O)Nc2ccccc21 | 6.85% (inactive) | 
C=CCn1c(O)c(N=Nc2ccccc2)c2ccccc21 | 10.5% (inactive) | 
CC(=O)c1ccc(NC(=O)c2noc3c2CCC3)cc1 | -19.5% (inactive) | 
COc1cc(/C=N\Nc2nc(-c3ccc(C)cc3)c(NC(C)=O)s2)ccc1O | 4.59% (inactive) | 
COC(=O)C[C@@H]1CC[C@@H]2[C@H](COc3ccc(NC(=O)Nc4cccc(C#N)c4)cc3C(=O)N2C)O1 | 5.41% (inactive) | 
COC(=O)C[C@@H]1CC[C@@H]2[C@H](COc3ccc(NC(=O)c4cccc(F)c4)cc3C(=O)N2C)O1 |  | 2.03% (inactive)
CC(C)(C)c1ccc(Oc2ccc(NC(=O)C3CC=CCC3C(=O)O)cc2)cc1 (configuration not stated) | -20.1% (inactive) | 
Cc1ccsc1/C=N/Nc1ccc(C(=O)O)cc1 | -11.1% (inactive) | 
Cc1ccc(C(=O)CN2C(=O)c3ccccc3S2(=O)=O)cc1 | 1.85% (inactive) | 
CCOc1ccc(-c2cc(CCCC(=O)NCc3ccc(C)cc3)no2)cc1 | -3.16% (inactive) | 

From PubChem BioAssay AID720570 (Broad Institute, 2013)
